Data as given in US20100184807A1, “Methods to inhibit tumor cell growth by using proton pump inhibitors” (Bio-Quant, Inc., priority 2008, published 2010).

Test system: GDM-1 (leukemia)
Experiment: MTT tumor cell growth assay
Format: cell-based
Details: GDM-1 (FIG. 3J); 10 μM
Procedure: In one study, adherent cells were plated approximately 16-24 hours before the day of the experiment in 180 μl growth media. On the day of the experiment, the plated adherent cells were analyzed and counted and suspension cells were plated in 180 μl growth media. 10× lansoprazole compounds and vehicle was prepared. The 10× lansoprazole compounds were prepared by diluting lansoprazole to final concentrations of 100 μM, 30 μM, 10 μM, 3 μM, and 1 μM. A vehicle was prepared by preparing a solution of PBS, equivalent to the volume used for 10 μM lansoprazole wherein the 1× solution constitutes ˜0.06% PBS. 10 μl of the various 10× lansoprazole solutions and the vehicle were added to the cells. The cells were incubated at 37° C., 5% CO2 for 48 hours. The media was then aspirated. The cell suspension was then spun at 1500 RPM for 10 minutes. The media was slowly removed. 200 μl of MTT solution was added to each well with a concentration of 0.863 mg/ml MTT in the growth media. The cells were incubated at 37° C., 5% CO2 for 4 hours and the medium is then aspirated. The plate containing the cell suspension was then spun at 1500 RPM for 10 minutes. The media was slowly removed using a multichannel pipettor. 100 μl of DMSO was then added to each well. The cells were incubated at 37° C., 5% CO2 for 5 minutes and the absorbance was obtained at 560 nm using a Dynex Opsys MR plate reader. The cells used for this procedure were the following cell lines: IGROV1 (ovarian cancer); OVCAR 8 (ovarian cancer); ES-2 (ovarian cancer); CAOV3 (ovarian cancer); OVCAR5 (ovarian cancer); SUDHL4 (lymphoma); RPMI8226 (myeloma); RPMI6666 (Hodgkin's lymphoma); NC37 (lymphoma); GDM-1 (leukemia); MC/CAR (prostate cancer); DU-145 (prostate cancer), J45-01 (leukemia), MOLT3 (leukemia), HUT78, J-gamma-1 (leukemia), MCF7 […], COL0205 (colon cancer), HL60 CLONE 15 (leukemia), T47D (breast cancer), P116 (intestinal cancer), KU812 (leukemia), SW620 (colon cancer), MK92-M1 (lymphoma), MV-4-11 (leukemia), HS578T (breast cancer), HT29 (colon cancer), HCT 116 (colon cancer), CAKI-1 (kidney cancer), A549 (lung cancer), H460 (lung cancer), A3 (colon cancer), MDA-MB231 […], MALME 3M (melanoma), RXF393 (kidney cancer), RS4.11 (leukemia), PC3 (prostate cancer), OVCAR3 (ovarian cancer), MDA-MB435 (melanoma), HUT102 (lymphoma), HL60 (leukemia), CCRF-CEM (leukemia), HUT78 (lymphoma), 786-O (kidney cancer), ACHN (kidney cancer), A498 (kidney cancer), H226 (lung cancer), H522 (lung cancer), HOP92 (lung cancer), SNB 19 (brain cancer), OVCAR4 (ovarian cancer), H9 (lymphoma), UO-31 (kidney cancer), HH (lymphoma), DAUDI (leukemia), LOXIMVI (melanoma), NAMALWA (lymphoma), EKVX (lung cancer), DOHH2 (lymphoma), SNB75 (brain cancer), SKMEL28 (melanoma), SKMEL5 (melanoma), SKMEL2 (melanoma), M14 (melanoma), UACC 257 (melanoma), H332M (lung cancer), KM12 (colon cancer), HCC2998 (colon cancer), G401 (kidney cancer), RS1184 (lymphoma), MC116 (leukemia), MOLT4 (leukemia), JM1 (liver cancer), HOP-62 (lung cancer), HCT-15 (colon cancer), SF-539 (brain cancer), SF295 (brain cancer), ST486 (lymphoma), U251 (brain cancer), and UACC-62 (melanoma).
Experiments, as described in Example I were conducted with lansoprazole, omeprazole and SCH 28080 at concentrations of 1 μM, 10 μM, and 100 μM. FIGS. 3A-3K show the experimental results when tumor cells from the following cell lines were treated with lansoprazole, omeprazole, and SCH 28080: IGROV1 (FIG. 3A), OVCAR8 (FIG. 3B), ES-2 (FIG. 3C), CAOV3 (FIG. 3D), OVCAR5 (FIG. 3E), SUDHL4 (FIG. 3F), RPMI8226 (FIG. 3G), RPMI6666 (FIG. 3H), NC37 (FIG. 3I), GDM-1 (FIG. 3J), and MC/CAR (FIG. 3K).

## Cc1nc2c(OCc3ccccc3)cccn2c1CC#N [SCH28080, SCH 28080]
  reducing tumor cell growth: effective in reducing tumor cell growth
